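48-hour exposure; five concentrations; linearly interpolated endpoints. Abbreviation: GI50, concentration required for 50% inhibition of growth. TGI: concentration producing complete growth inhibition.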
Experiments:
Test in all cases: growth of human tumour cells (NCI), 48 h
A549 NSCLC = system: A549 NSCLC
MALME-3M melanoma = system: MALME-3M melanoma
NCI/ADR-RES ovarian = system: NCI/ADR-RES ovarian
NCI-H460 lung = system: NCI-H460 lung
MDA-MB-231 breast = system: MDA-MB-231 breast
M14 melanoma = system: M14 melanoma
SK-MEL-2 melanoma = system: SK-MEL-2 melanoma
KM12 colon = system: KM12 colon
MDA-MB-435 = system: MDA-MB-435
MOLT-4 leukemia = system: MOLT-4 leukemia

SMILES	TGI (A549 NSCLC) [µM]	TGI (MALME-3M melanoma) [µM]	TGI (NCI/ADR-RES ovarian) [µM]	TGI (NCI-H460 lung) [µM]	TGI (MDA-MB-231 breast) [µM]	TGI (M14 melanoma) [µM]	TGI (SK-MEL-2 melanoma) [µM]	TGI (KM12 colon) [µM]	TGI (MDA-MB-435) [µM]	TGI (MOLT-4 leukemia) [µM]	GI50 (A549 NSCLC) [µM]	GI50 (MALME-3M melanoma) [µM]	GI50 (MDA-MB-435) [µM]	GI50 (NCI/ADR-RES ovarian) [µM]	GI50 (NCI-H460 lung) [µM]	GI50 (MDA-MB-231 breast) [µM]	GI50 (M14 melanoma) [µM]	GI50 (SK-MEL-2 melanoma) [µM]	GI50 (KM12 colon) [µM]	GI50 (MOLT-4 leukemia) [µM]
COc1cc([C@@H]2c3cc4c(cc3[C@@H](Nc3ccc(NC(=O)c5cc(NC(=O)c6cc([N+](=O)[O-])cn6C)cn5C)cc3)[C@H]3COC(=O)[C@H]23)OCO4)cc(OC)c1O	> 49.9	> 100	> 100	13.2	> 64	47.7	> 100	61.8												
O=[N+]([O-])c1cc(Cl)ccc1S(=O)(=O)c1cc(Cl)cc2c1NCCC2	> 100	> 100	> 100	> 100	> 100	> 100	> 100	> 100	> 100	> 100										
Cn1c(=O)c2[nH]c(-n3nc(-c4ccccc4)cc3N)nc2n(C)c1=O	> 100	47	14.2	> 100	> 100	50	47.2	> 100	> 100	> 100										
Oc1ccccc1C=Nc1ccccc1N=Cc1ccccc1O	> 100	> 100		> 100		> 100		> 100		> 100										
COC1CCC(n2c([C@@H]3CCCC(=O)N3c3ccc(F)c(F)c3)nc3cc(-c4c(C)noc4C)ccc32)CC1 (some centres not stated)	69.5	17.7	30	> 100	26	19.9	35.5	30.4	82.7	72.2	11.8	1.74	8.01	13.5	26.3	8.46	1.87	11.4	14	16.9
CC1=CC(=O)/C(=C/N2CCNC2=S)C(=O)O1	> 100		> 100	> 100	> 100	> 100	> 100	> 100	> 100	> 100										
CC(C)C[C@H](NC(=O)[C@H](CCc1ccccc1)NC(=O)c1ccc2ccccc2n1)B(O)O	13.4		4.66	2.47	0.305	0.0289	0.0407	0.295	< 0.0123	4.76										
CC1(CO)C(=O)OC12CCCCC2 (configuration not stated)	> 100	> 100				> 100	> 100	> 100		> 100										
CCOC(=O)O/N=C1/C(c2c(O)[nH]c3ccccc23)=Nc2ccccc21	33.1	22.1	78.6	15.8	63	24.2	8.18	13.8	17.3	> 100										
COc1c(Cl)c(Cl)c(OC)c2c1C(=O)C=CC2=O	> 100	29.5		> 100		43.3	33.9	32.2		46.7										
O=[N+]([O-])c1ccc(Cl)cc1N/N=C/c1cccs1	> 100		> 100	> 100	> 100	> 100		> 100	> 100	> 100										
NC(=S)N/N=C(\C(=O)Nc1ccc(Cl)c(Cl)c1)C1=NN(c2ccccc2)C(c2cccc([N+](=O)[O-])c2)CC1=O (configuration not stated)	> 100	> 100		> 100		> 100	> 100	> 100		70.9										
NC(CNc1ccc(O)cc1)C(=O)O (configuration not stated)	> 100	> 100		> 100		> 100	> 100	> 100		> 100										
O=C(CCC(=O)OCC1OC(O)(CC2OC(CO)C(O)C(O)C2O)C(O)C1O)OCc1ccccc1 (configuration not stated)	> 100	> 100	> 100	> 100	> 100	> 100	> 100	> 100	> 100											
C/C(=N\NC(=O)N/N=C(\C)c1ccccn1)c1ccccn1	> 100	> 100	93.6	> 100		> 100	> 100	> 100	> 100	> 100										
O=Cc1cc(O)c(O)c(/C=N/n2c3ccccc3c3ccccc32)c1	> 100	30.8		36.7	30.2	23.6		84.3	28.3	12.5										
N#CI1OC(C(F)(F)F)(C(F)(F)F)c2ccccc21	> 100		40.3	72.5	54.7	36.2	30.5	35.5	38.4											
COc1ccc(CCC2NCCc3cc(OC)c(OC)cc32)cc1 (configuration not stated)	> 100	> 100		> 100		> 100	> 100	> 100		> 100										
CCOC(=O)C12C(=O)CCN1CCc1ccccc1C2C (configuration not stated)	> 100	> 100	> 100		> 100	> 100	> 100	> 100	> 100	> 100										
O=C1NC(=S)NC(=O)C1=Cc1ccc2ccccc2n1	> 100	> 100		> 100		> 100	> 100	> 100		> 100										
CCOC(=O)CN(Cc1ccccc1)Cc1c(C(=O)c2ccccc2)c2ccccc2n1C(=O)c1ccccc1	> 100	> 100		> 100		> 100	> 100	> 100		> 100										
Cc1ccnc2sc3ccccc3c(=O)c12		> 100	> 100	> 100	> 100	> 100	> 100	> 100	> 100	79.2										
CCc1cc2c(oc3c4ccccc4ccc23)c(=O)[nH]1	> 10			> 10		> 10		> 10	> 10	> 10										
CN(C)/C=N/S(=O)(=O)c1nn2c(C=O)c(-c3cc4ccccc4oc3=O)nc2s1	> 63.5	6.07	> 100	> 88.1	32.3		40.1	> 49	62.4	> 20.6										
CC(C)(CN1CCCCC1)C(=O)/C=C/c1c(Cl)cccc1Cl	5.51	2.16	5.09	3.86	2.15	2.32	3.73	2.36	2.85											

SMILES	TGI (A549 NSCLC) [µM]	TGI (MALME-3M melanoma) [µM]	TGI (NCI/ADR-RES ovarian) [µM]	TGI (NCI-H460 lung) [µM]	TGI (MDA-MB-231 breast) [µM]	TGI (M14 melanoma) [µM]	TGI (SK-MEL-2 melanoma) [µM]	TGI (KM12 colon) [µM]	TGI (MDA-MB-435) [µM]	TGI (MOLT-4 leukemia) [µM]	GI50 (A549 NSCLC) [µM]	GI50 (MALME-3M melanoma) [µM]	GI50 (MDA-MB-435) [µM]	GI50 (NCI/ADR-RES ovarian) [µM]	GI50 (NCI-H460 lung) [µM]	GI50 (MDA-MB-231 breast) [µM]	GI50 (M14 melanoma) [µM]	GI50 (SK-MEL-2 melanoma) [µM]	GI50 (KM12 colon) [µM]	GI50 (MOLT-4 leukemia) [µM]
c1cn[nH]c1	> 10	> 10	> 10	> 10			> 10	> 10	> 10	> 10										
Cc1ccc(Nc2ccc(Nc3ccc(C)cc3S(=O)(=O)O)c3c2C(=O)c2ccccc2C3=O)c(S(=O)(=O)O)c1	> 100	> 100		> 100		> 100	> 100	> 100		> 100										
Cc1ccc(N(C(=O)CC(=O)N2N=C(c3ccccc3)C(N=Nc3ccc([N+](=O)[O-])cc3)C2=O)C(=O)c2ccc(Cl)cc2)cc1 (configuration not stated)	> 51.8	> 100		> 47.8		18.4	> 62.4	> 78.9		> 100										
C/C(=C/c1c(C)[nH]c(=O)[nH]c1=O)C(=O)O	> 1380	> 1380	> 1380	> 1380			> 1380	> 1380		> 1380								> 1380		
O=C1C(CN2CCCC2)CCCC1CN1CCCC1 (configuration not stated)	39.3	1.27	18.9	43.5	31.1	3.3	37.4	39.8	7.43											
COc1ccc(N2C(=O)C3c4[nH]c5ccccc5c4C4CCC(C(C)(C)C)CC4C3C2=O)cc1OC (configuration not stated)	32.6	> 100				> 100				43.9										
Cc1nn(-c2ccccc2)c2c1N=C(C(=O)O)CC(c1ccccc1)=N2	> 10	> 10	> 10		> 10	> 10		> 10	> 10	> 10										
O=c1cc2cc(O)[nH]c(=O)c2c(O)[nH]1	> 100	> 100		> 100		> 100		> 100		> 100										
COC(=O)C(N)CCCC(N)C(=O)NC(C)C(=O)NC(CCC(=O)NCCCNc1ccc([N+](=O)[O-])c2[nH]c3ccccc3c(=O)c12)C(N)=O (configuration not stated)	12.3		25	17.2	28.8	17.9	46.2	19.1	17.6											
CC(CC(C)(C)[N+](C)(C)C)[N+](C)(C)C (configuration not stated)	> 100		> 100	> 100		> 100		> 100		> 100										
O=C(NNCc1ccccc1O)c1ccccc1O	> 100	> 100	40.4		> 100	24.2	25.8	> 100	> 100	> 100										
CC(=O)N1C(OCc2ccccc2)CCN1c1ccccc1 (configuration not stated)	> 10	> 10	> 10	> 10	> 10	> 10	> 10		> 10	> 10										
CCCCNCC(O)c1cc(-c2ccc(C(F)(F)F)cc2)nc(-c2ccc(C(F)(F)F)cc2)c1 (configuration not stated)	3.36						4.33	3.6			1.64							2.46	1.81	
S=C1CSc2c(cnc3ccccc23)N1	> 100	> 100	> 100	> 100	> 100	> 100		> 100	> 100	> 100										
Cc1ccsc1/C=N/Nc1ccccn1	> 100	> 100	> 100		> 100	> 100	> 100	> 100	> 100	73.9										
C1=C[C@]2(CCC13OCCO3)COc1ccccc12	> 100		96.4	> 100	> 100	> 100	> 100	75.5	> 100	> 100										
CC(CN(C)C)C(=O)/C=C/c1ccc(Cl)c(Cl)c1 (configuration not stated)	13.8		79.6	5.2	3.29	5.13	4.19	3.23	3.33	> 100										
CCCC1C(C#N)(C#N)C(C#N)=C(N)C1(C)C(C)=O (configuration not stated)	> 100	> 100	> 100		> 100	> 100	> 100	> 100	> 100	> 100										
COc1ccc(/C=C/C(C(=O)O)C(=O)O)cc1	> 100	> 100		> 100		> 100	> 100	> 100		84.8										
O=C1C=C(NCCc2cc(Br)c(O)c(Br)c2)C(=O)c2[nH]cnc21	> 100	30	> 100	> 100	67.9	57.7	> 100	> 100	29.3											
CN1CCN(c2c(O)c3c(c(O)c2Cl)C(=O)C=CC3=O)CC1	4.27	0.448	2.65	3.77	1.06	0.843	2.64	3.93	0.538											
Cc1nn(C(=O)c2ccc(Cl)cc2)c2c1C(c1ccco1)SC(N)=N2 (configuration not stated)	> 10		> 10	> 10	> 10	> 10	> 10	> 10	> 10	> 10										
CC(C)(Oc1ccc(C(=O)c2ccc(Cl)cc2)cc1Cl)C(=O)N1CCN(c2ccccc2)CC1	> 100	> 100		> 100		> 100	> 100	> 100		> 100										
Cc1oc2c(C)c3oc(=O)cc(C)c3cc2c1CN	> 100	86		> 100		> 100	> 100	> 100		> 100										

Reference: PubChem BioAssay (NCI)
